Test results as given in patent US20120041211A1, “NOVEL PROCESS FOR PREPARING CARBOXY-CONTAINING PYRAZOLEAMIDO COMPOUNDS 597” (priority 2009, published 2012).

Assay: Stability of solvate form on exposure to the lab atmosphere
Assay type: physicochemical
Details: 21° C., 30% relative humidity, material from wet suspension
Experimental: 20 mg of Form 4 was added to a small vessel. 0.711 ml of Form 4 saturated MeOH solution was added to the vessel making a suspension. The suspension was stirred for 7 days at 25° C. Thereafter the suspension was stirred at 21° C. for 1½ months. The wet suspension was analysed by XRPD (Cu-source) giving substantially the following d-values. […] For diffractogram see FIG. 8.
20 mg of Form 4 was added to a small vessel. 0.711 ml MTBE was added to the vessel making a suspension. The suspension was stirred for 7 days at 25° C. The wet suspension was analysed by XRPD (Cu-source) giving substantially the following d-values.

Row | stability / form transformation on exposure to the lab atmosphere | Compound
1 | transforms to Hydrate | CC(C)(C)c1c(C(=O)NC2C3CC4CC(C3)CC2C4)cnn1-c1ccc(C(=O)O)cc1 (centres unmarked) [MTBE Solvate, 4-[4-(2-adamantylcarbamoyl)-5-tert-butyl-pyrazol-1-yl]benzoic acid]
2 | rapidly transforms to Form 3 | CC(C)(C)c1c(C(=O)NC2C3CC4CC(C3)CC2C4)cnn1-c1ccc(C(=O)O)cc1 (centres unmarked) [MeOH Solvate, 4-[4-(2-adamantylcarbamoyl)-5-tert-butyl-pyrazol-1-yl]benzoic acid]
